Assay results from ChEMBL document CHEMBL3425496, “Exploring experimental and computational markers of cyclic peptides: Charting islands of permeability” (Eur J Med Chem, 2015).
Square brackets hold non-standard residues; d marks the D form. Peptide text beside a SMILES is read from it. NMeW = CN[C@@H](Cc1c[nH]c2ccccc12)C(=O)O; NMeL = CN[C@@H](CC(C)C)C(=O)O; dNMeL = CN[C@H](CC(C)C)C(=O)O

Assays:
[1] = Apparent permeability of the compound at 50 uM after 5 hrs by PAMPA method; format: physicochemical
[2] = Apparent permeability from apical to basolateral side in human Caco2 cells by LC-MS analysis; format: ADME, cell-based; settings: Caco-2

Row | Papp at 5 h, 50 µM [1] [×10⁻⁶ cm/s] | Papp A→B [2] [×10⁻⁶ cm/s] | SMILES
1 | 0.09 | 0.2 | C[C@@H](O)[C@@H]1NC(=O)[C@@H](CCCCN)NC(=O)[C@@H](Cc2c[nH]c3ccccc23)NC(=O)[C@H](Cc2ccccc2)NC(=O)[C@@H]2CCCN2C(=O)[C@@H](Cc2ccccc2)NC1=O
2 | 0.67 | 11.9 | CC(C)C[C@@H]1NC(=O)[C@@H](CC(C)C)N(C)C(=O)[C@@H](CC(C)C)N(C)C(=O)[C@H](Cc2ccc(O)cc2)NC(=O)[C@@H]2CCCN2C(=O)[C@@H](CC(C)C)NC1=O
3 | 2.3 | 13.9 | CC(C)C[C@@H]1NC(=O)[C@H](CC(C)C)N(C)C(=O)[C@@H](CC(C)C)N(C)C(=O)[C@H](Cc2ccc(O)cc2)NC(=O)[C@@H]2CCCN2C(=O)[C@H](CC(C)C)N(C)C1=O
4 | 3.33 | 9.46 | CC(C)C[C@@H]1NC(=O)[C@H](Cc2c[nH]c3ccccc23)NC(=O)[C@H]2CCCN2C(=O)[C@@H](CC(C)C)NC(=O)[C@@H](CC(C)C)NC(=O)[C@@H](CC(C)C)NC1=O
5 | 0.19 | 0.21 | CC(C)C[C@@H]1NC(=O)[C@H](Cc2c[nH]c3ccccc23)NC(=O)[C@@H]2CCCN2C(=O)[C@H]2CCCN2C(=O)[C@@H](CC(C)C)NC(=O)[C@H](CC(C)C)NC1=O
6 | 0.28 | 0.36 | CC(C)C[C@@H]1NC(=O)[C@@H](CC(C)C)NC(=O)[C@@H](CC(C)C)NC(=O)[C@@H](CC(C)C)NC(=O)[C@H](Cc2c[nH]c3ccccc23)NC(=O)[C@@H]2CCCN2C1=O
7 | 2.53 | 17.5 | CC(C)C[C@@H]1NC(=O)[C@@H](CC(C)C)NC(=O)[C@@H](CC(C)C)NC(=O)[C@H](Cc2c[nH]c3ccccc23)NC(=O)[C@@H]2CCCN2C(=O)[C@@H](CC(C)C)NC1=O
8 | 1.67 | 5.95 | CC(C)C[C@@H]1NC(=O)[C@H](Cc2c[nH]c3ccccc23)NC(=O)[C@H]2CCCN2C(=O)[C@H](CC(C)C)NC(=O)[C@H](CC(C)C)NC(=O)[C@@H](CC(C)C)NC1=O
9 | 0.41 | 3.06 | CC[C@H](C)[C@@H]1NC(=O)[C@H](Cc2c[nH]c3ccccc23)NC(=O)[C@H]2CCCN2C(=O)[C@H]([C@@H](C)CC)NC(=O)[C@H]([C@@H](C)CC)NC(=O)[C@@H](CC(C)C)NC1=O
10 | 0.01 | 0.27 | CC(C)C[C@@H]1NC(=O)[C@H](Cc2ccccc2)NC(=O)CNC(=O)[C@H](C)NC(=O)[C@H](Cc2ccc(O)cc2)NC(=O)[C@H]2CCCN2C1=O
11 | 0.07 | 0.58 | CC(C)C[C@H]1NC(=O)[C@H](Cc2ccccc2)NC(=O)CNC(=O)[C@@H](C)NC(=O)[C@H](Cc2ccc(O)cc2)NC(=O)[C@@H]2CCCN2C1=O
12 | 0.02 | 0.72 | CC(C)C[C@@H]1NC(=O)[C@@H](CC(C)C)NC(=O)[C@H](Cc2ccccc2)NC(=O)CNC(=O)[C@@H](C)NC(=O)[C@H](Cc2ccc(O)cc2)NC1=O
13 | – | < 0.14 | CC(C)C[C@H]1C(=O)N2CCC[C@H]2C(=O)N[C@@H](Cc2ccc(O)cc2)C(=O)N(C)[C@H](C)C(=O)N(C)CC(=O)N[C@@H](Cc2ccccc2)C(=O)N1C
14 | – | < 0.14 | CN1C(=O)[C@H]2CCCN2C(=O)[C@H](CCCCN)NC(=O)[C@H](CCCNC(=N)N)NC(=O)[C@@H](CCCNC(=N)N)NC(=O)[C@H](CCCNC(=N)N)NC(=O)[C@@H]1Cc1c[nH]c2ccccc12
15 | 0.09 | 0.1 | CC(C)C[C@@H]1NC(=O)[C@H](Cc2ccc(O)cc2)NC(=O)[C@@H]2CCCN2C(=O)[C@H]2CCCN2C(=O)[C@@H](CC(C)C)NC(=O)[C@H](CC(C)C)NC1=O
16 | 0.96 | 10.8 | CC(C)C[C@@H]1NC(=O)[C@H](Cc2ccc(O)cc2)NC(=O)[C@H]2CCCN2C(=O)[C@H](CC(C)C)NC(=O)[C@H](CC(C)C)N(C)C(=O)[C@@H](CC(C)C)N(C)C1=O
17 | 1.51 | 7.75 | CC(C)C[C@@H]1NC(=O)[C@@H](CC(C)C)N(C)C(=O)[C@H](CC(C)C)NC(=O)[C@H](Cc2ccc(O)cc2)N(C)C(=O)[C@H]2CCCN2C(=O)[C@H](CC(C)C)NC1=O
18 | 1.31 | 11.3 | CC(C)C[C@@H]1NC(=O)[C@H](Cc2ccc(O)cc2)N(C)C(=O)[C@H]2CCCN2C(=O)[C@H](CC(C)C)NC(=O)[C@H](CC(C)C)N(C)C(=O)[C@@H](CC(C)C)NC1=O
19 | 3.83 | 21.8 | CC(C)C[C@@H]1NC(=O)[C@H](Cc2ccc(O)cc2)NC(=O)[C@@H]2CCCN2C(=O)[C@@H](CC(C)C)NC(=O)[C@@H](CC(C)C)N(C)C(=O)[C@@H](CC(C)C)N(C)C1=O
20 | 1.11 | 5.45 | CC(C)C[C@H]1NC(=O)[C@H](CC(C)C)N(C)C(=O)[C@H](CC(C)C)N(C)C(=O)[C@H](Cc2ccc(O)cc2)NC(=O)[C@@H]2CCCN2C(=O)[C@H]2CCCN2C1=O
21 | 1.88 | 16.4 | CC(C)C[C@@H]1C(=O)N(C)[C@H](CC(C)C)C(=O)N[C@H](CC(C)C)C(=O)N(C)[C@@H](CC(C)C)C(=O)N2CCC[C@H]2C(=O)N[C@@H](Cc2ccc(O)cc2)C(=O)N1C
22 | 0.1 | 14.7 | CC(C)C[C@@H]1NC(=O)[C@@H](CC(C)C)N(C)C(=O)[C@@H](CC(C)C)N(C)C(=O)[C@H](Cc2ccc(O)cc2)NC(=O)[C@@H]2CCCN2C(=O)[C@@H](CC(C)C)N(C)C1=O
23 | 1.52 | 15.8 | CC(C)C[C@@H]1C(=O)N(C)[C@@H](CC(C)C)C(=O)N(C)[C@@H](CC(C)C)C(=O)N2CCC[C@@H]2C(=O)N[C@@H](Cc2ccc(O)cc2)C(=O)N(C)[C@@H](CC(C)C)C(=O)N1C
24 | 0.29 | 1.04 | CC(C)C[C@@H]1NC(=O)[C@H](CC(C)C)N(C)C(=O)[C@H](Cc2ccc(O)cc2)NC(=O)[C@@H]2CCCN2C(=O)[C@H]2CCCN2C(=O)[C@@H](CC(C)C)NC1=O
25 | 0.08 | 0.93 | C[C@@H](O)[C@@H]1NC(=O)[C@H](CCCCN)NC(=O)[C@@H](Cc2c[nH]c3ccccc23)NC(=O)[C@H](Cc2ccccc2)NC(=O)[C@@H]2CCCN2C(=O)[C@H](Cc2ccccc2)NC1=O
26 | – | 6.82 | CC(C)C[C@H]1C(=O)N2CCC[C@H]2C(=O)N[C@@H](Cc2ccccc2)C(=O)N[C@@H](Cc2ccccc2)C(=O)N[C@@H](Cc2c[nH]c3ccccc23)C(=O)N[C@@H](C(C)C)C(=O)N1C (cyclo(FFWV[NMeL]P))
27 | – | 1.7 | CC(C)C[C@@H]1NC(=O)[C@H](C(C)C)NC(=O)[C@H](Cc2c[nH]c3ccccc23)N(C)C(=O)[C@H](Cc2ccccc2)NC(=O)[C@H](Cc2ccccc2)NC(=O)[C@@H]2CCCN2C1=O (cyclo(FF[NMeW]VLP))
28 | – | 0.11 | CC[C@H](C)[C@@H]1NC(=O)[C@H](C(C)C)NC(=O)[C@H](CC(C)C)NC(=O)CNC(=O)[C@@H]2CCCN2C(=O)[C@H](Cc2ccc(O)cc2)NC1=O (cyclo(GLVIYP))
29 | 0.77 | – | CC(C)C[C@@H]1NC(=O)[C@@H](CC(C)C)N(C)C(=O)[C@H](CC(C)C)NC(=O)[C@H](Cc2ccc(O)cc2)NC(=O)[C@H]2CCCN2C(=O)[C@H](CC(C)C)NC1=O (cyclo(LL[dP]YL[dNMeL]))
30 | 3.28 | – | C=C[C@H]1C[N@@]2CC[C@H]1C[C@@H]2[C@@H](O)c1ccnc2ccc(OC)cc12 [QUINIDINE]
